In PMC6156138, “Combination of a Latency-Reversing Agent With a Smac Mimetic Minimizes Secondary HIV-1 Infection in vitro” (Frontiers in Microbiology, 2018):
Like-named read-outs stand apart in the source and are kept apart here.

Columns and labels:
Format in all cases: cell-based
[1] = tested on: latent HIV-1-infected U1 cells; experiment: HIV reactivation from latent cells: supernatant p24 antigen; conditions: day 2, single drug (Figure 1B)
Method: (§1) The reactivation of HIV-1 from latently infected cells was determined by the measurement of supernatant p24 antigen and intracellular HIV-1 RNA levels. ACH-2 cells or U1 cells (5 × 10^5 cells/mL) were placed in 96-well plates, and then the cells were incubated with different concentrations of drugs for 24 h to extract RNA and for 48 h to collect the supernatant. The increase in supernatant p24 antigen levels was measured using […] G1200 (Fujirebio, Tokyo, Japan). The total RNA was extracted using an RNeasy Mini Kit (Qiagen, Hilden, Germany), following the manufacturer’s protocols. The cDNA was synthesized using PrimeScript RT Master Mix (Takara Bio, Shiga, Japan), and quantitative real-time PCR analyses for the intracellular HIV-1 RNA were carried out with PowerUp^TM SYBR Green Master Mix (Applied Biosystems, Foster City, CA, United States). The oligonucleotide primers used were as follows: 5′-[…]-3′ (forward) and 5′-[…]-3′ (reverse) for HIV-RNA detection; 5′-[…]-3′ (forward) and 5′-[…]-3′ (reverse) for β-actin. The HIV-RNA expressions were normalized with that of β-actin, which was indicated as the relative quantity, and the increase in HIV-1 RNA levels in the presence of a drug was compared with that without a drug.
(§2) FIGURE 1 (A,B) The increase in viral production from ACH-2 cells (A) and U1 cells (B) was examined by supernatant p24 antigen levels on day 2. (C,D) Changes in the intracellular HIV-1 mRNA levels due to treatment with these drugs in ACH-2 cells (C) and U1 cells (D) after 24 h of incubation.

[2] = tested on: latent HIV-1-infected ACH-2 cells; experiment: as above; conditions: ACH-2 cells; for viral production (supernatant p24 antigen levels): day 2, single drug (Figure 1A)
Method: as §1, §2
FIGURE 2 (A) Effect of birinapant when combined with TNF-α. The supernatant p24 levels with birinapant (1∼100 nM) in ACH-2 cell culture on day 2 are shown in white bars, and p24 values with birinapant when combined with TNF-α (10 ng/ml) are shown in black bars. (B) HIV-1 production from ACH-2 cells when reactivated by PEP005 (0.05∼50 nM) for 24 h. (C) Changes in the living cell numbers in the presence of drug(s) on days 1, 3, and 5.

[3] = Cytotoxicity assay (Cytotoxicity LDH Assay Kit); conditions: human
Method: (§3) To determine the cytotoxicity induced by LRAs and its related compounds, cells (5 × 10^5 cells/mL) were cultured in the presence or absence of LRA. After 24 h, cytotoxicity assays were performed using a Cytotoxicity LDH Assay Kit (Dojindo, Kumamoto, Japan) according to the manufacturer’s instructions. The number of living cells with the drug was measured and compared with those without the drug, and data are shown as percentage (%) of control.

cIAP = experiment: Determination of cIAP expression (western blotting); conditions: ACH-2 cells, 24 h; birinapant 50 nM, PEP005 5 nM, TNF-α 10 ng/ml
Method: ACH-2 cells (1 × 10^6 cells/ml) were treated with different concentrations of the drug for 24 h, and the cells were washed twice with PBS. Cells were homogenized by CelLytic M Cell Lysis Reagent (Sigma-Aldrich, St. Louis, MO, United States) containing a protease inhibitor cocktail (Nacalai Tesque, Kyoto, Japan) and were incubated at room temperature (RT) for 15 min. The cells were then centrifuged at 13,000 rpm for 15 min, and the supernatant of the whole cell lysate was collected. The bicinchoninic acid (BCA) protein assay (Thermo Scientific, Rockford, IL, United States) was used to measure the actual protein amount in the treated and untreated cells. The protein extracts were separated through sodium dodecyl sulfate polyacrylamide gel electrophoresis (SDS-PAGE) and then were blotted onto a Trans Blot Turbo polyvinylidene difluoride (PVDF) membrane (Bio-Rad, Hercules, CA, United States). Protein bands were visualized using 3,3′,5,5′-tetramethylbenzidine (TMB) solution (Wako Pure Chemical). The sources of the antibodies were as follows: c-IAP1 (D5G9), c-IAP2 (58C7), and XIAP (3B6) were purchased from Cell Signaling Technology (Danvers, MA, United States); β-actin (C4) was purchased from Santa Cruz Biotechnology.
Supplementary file Data_Sheet_5.PDF: FIGURE S5 Western blotting (WB) analysis for IAP family proteins in ACH-2 cells. Cells were exposed to birinapant (50 nM) in the presence or absence of PEP005 (5 nM), with TNF-α (10 ng/ml) co-treatment for 24 h, and cell lysates were used for WB analysis. Click here for additional data file.

U937 = experiment: Cytotoxicity assay (Cytotoxicity LDH Assay Kit); conditions: U937 cells, 24 h; read-out: CC50 ± SD against U937
Method: as §3

OM10.1 = experiment: Cytotoxicity assay (Cytotoxicity LDH Assay Kit); conditions: OM10.1 cells, 24 h; read-out: CC50 ± SD against OM10.1
Method: as §3

Jurkat = experiment: Cytotoxicity assay (Cytotoxicity LDH Assay Kit); conditions: Jurkat cells, 24 h; read-out: CC50 ± SD against Jurkat
Method: as §3

A3.01 = experiment: Cytotoxicity assay (Cytotoxicity LDH Assay Kit); conditions: A3.01 cells, 24 h; read-out: CC50 ± SD against A3.01
Method: as §3

U1 = experiment: Cytotoxicity assay (Cytotoxicity LDH Assay Kit); conditions: U1 cells, 24 h; read-out: CC50 ± SD against U1
Method: as §3

J1.1 = experiment: Cytotoxicity assay (Cytotoxicity LDH Assay Kit); conditions: J1.1 cells, 24 h; read-out: CC50 ± SD against J1.1
Method: as §3

HL-60 = experiment: Cytotoxicity assay (Cytotoxicity LDH Assay Kit); conditions: HL-60 cells, 24 h; read-out: CC50 ± SD against HL-60
Method: as §3

ACH-2 = experiment: Cytotoxicity assay (Cytotoxicity LDH Assay Kit); conditions: ACH-2 cells, 24 h; read-out: CC50 ± SD against ACH-2
Method: as §3

HIV-1 NL4-3 = experiment: Antiviral assay, HIV-1 NL4-3 in MT-4 cells; conditions: MT-4 cells, cultured for 12 days, single drug
Method: as §3, with “Antiviral assays using wild type HIV-1 (HIV-1 NL4-3) cells and MT-4 cells were conducted as previously described ([Maeda et al., 2014]; [Takamatsu et al., 2015]). To” for “To”
Supplementary file Data_Sheet_1.PDF: FIGURE S1 The combined effect of an RT inhibitor (EFdA/MK-8591) ([Nakata et al., 2007]; [Kawamoto et al., 2008]; [Maeda et al., 2014]) and PKC activator (PEP005) on the replication of HIV-1 NL4-3 in MT-4 cells. MT-4 cells were infected with HIV-1 NL4-3 in the presence or absence of drug(s), cultured for 12 days, and the supernatant p24 levels were measured. Click here for additional data file.

[4] = A3.01 cells, read-out: CC50 ± SD against A3.01
[5] = ACH-2 cells, read-out: CC50 ± SD against ACH-2
[6] = HL-60 cells, read-out: CC50 ± SD against HL-60
[7] = J1.1 cells, read-out: CC50 ± SD against J1.1
[8] = Jurkat cells, read-out: CC50 ± SD against Jurkat
[9] = OM10.1 cells, read-out: CC50 ± SD against OM10.1
[10] = U1 cells, read-out: CC50 ± SD against U1
[11] = U937 cells, read-out: CC50 ± SD against U937

CCNC(=O)C[C@@H]1N=C(c2ccc(Cl)cc2)c2cc(OC)ccc2-n2c(C)nnc21 [GSK525762A]
viral production (supernatant p24 antigen levels) [1]: increased viral production | viral production (supernatant p24 antigen levels) [2]: increased viral production

CCCCOc1nc(N)c2c(n1)N(Cc1cccc(CN3CCCC3)c1)CC(=O)N2 [GS-9620]
viral production (supernatant p24 antigen levels) [1]: failed to increase the p24 levels | CC50 at 24 h [3, 4]: > 100 µM | CC50 at 24 h [3, 5]: > 100 µM | CC50 at 24 h [3, 6]: > 100 µM | CC50 at 24 h [3, 7]: 35 ± 1.3 µM | CC50 at 24 h [3, 8]: 23 ± 0.3 µM | CC50 at 24 h [3, 9]: > 100 µM | CC50 at 24 h [3, 10]: > 100 µM | CC50 at 24 h [3, 11]: > 100 µM | viral production (supernatant p24 antigen levels) [2]: failed to increase the p24 levels

TNF-α
cIAP expression (western blotting) (cIAP): upregulation of cIAP-1 (and cIAP-2) | increase of supernatant HIV-1 (p24) levels compared with unstimulated cells ([2]; TNF-α 10 ng/ml, day 2 (Figure 2A)): > 20 fold | supernatant HIV-1 p24 levels ([2]; after 24 h, PEP005 5 nM and higher (Figure 2B)): reactivated and increased the supernatant HIV-1 p24 levels

Cc1sc2c(c1C)C(c1ccc(Cl)cc1)=N[C@@H](CC(=O)OC(C)(C)C)c1nnc(C)n1-2 [JQ-1]
viral production (supernatant p24 antigen levels) [1]: increased viral production | viral production (supernatant p24 antigen levels) [2]: increased viral production

Ro5-3335
viral production (supernatant p24 antigen levels) [1]: failed to increase the p24 levels | CC50 (U937): > 100 µM | CC50 (OM10.1): > 100 µM | CC50 (Jurkat): > 100000 nM | CC50 (A3.01): > 100 µM | CC50 (U1): > 100 µM | CC50 (J1.1): > 100 µM | CC50 (HL-60): > 100 µM | CC50 (ACH-2): > 100 µM | viral production (supernatant p24 antigen levels) [2]: failed to increase the p24 levels

C#C[C@]1(CO)O[C@@H](n2cnc3c(N)nc(F)nc32)C[C@@H]1O [EFdA/MK-8591, 4′-ethynyl-2-fluoro-2′-deoxyadenosine]
replication of HIV-1 NL4-3 (supernatant p24) (HIV-1 NL4-3): potently inhibited the replication

O=C(CCCCCCC(=O)Nc1ccccc1)NO [SAHA]
viral production (supernatant p24 antigen levels) [1]: increased viral production | CC50 at 24 h [3, 4]: > 100 µM | CC50 at 24 h [3, 5]: 9 ± 1.2 µM | CC50 at 24 h [3, 6]: > 100 µM | CC50 at 24 h [3, 7]: > 100 µM | CC50 at 24 h [3, 8]: 90 ± 2 µM | CC50 at 24 h [3, 9]: > 100 µM | CC50 at 24 h [3, 10]: > 100 µM | CC50 at 24 h [3, 11]: > 100 µM | viral production (supernatant p24 antigen levels) [2]: increased viral production

FC(F)(F)Oc1ccc2nc(-c3ccc(OCCOCCOc4ccc(-c5nc6ccc(OC(F)(F)F)cc6[nH]5)nc4)cn3)[nH]c2c1 [AI-10-49]
viral production (supernatant p24 antigen levels) [1]: failed to increase the p24 levels | CC50 (U937): > 100 µM | CC50 (OM10.1): > 100 µM | CC50 (Jurkat): 1100 ± 70 nM | CC50 (A3.01): > 100 µM | CC50 (U1): > 100 µM | CC50 (J1.1): > 100 µM | CC50 (HL-60): > 100 µM | CC50 (ACH-2): 41 ± 10 µM | viral production (supernatant p24 antigen levels) [2]: failed to increase the p24 levels
